Laboratory results taken from patent US20260042755A1, “GPR6 INVERSE AGONISTS” (MapLight Therapeutics, Inc., priority 2022, published 2026).

Assays:
[1] = molecular target: T1, GPR6 (Homo sapiens, UniProt P46095); experiment: GPR6 antagonist functional cAMP assay (LANCE Ultra cAMP TR-FRET, CHO cells stably expressing GPR6); assay type: cell-based
T1 construct: expressed in transfected cells; host or cells: CHO cells
Procedure, shortened: (§1)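 Suspended cells were plated at 10,000 per well in Krebs-Ringer bicarbonate buffer containing 0.1% BSA and 150 μM Ro 20-1724, then treated with compounds for 45 min at 37 °C. Intracellular cAMP was then quantified by TR-FRET immunoassay.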

[2] = molecular target: T2, GPR3 (Homo sapiens, UniProt P46089); experiment: GPR3 antagonist functional cAMP assay (LANCE Ultra cAMP TR-FRET, CHO cells stably expressing GPR3); assay type: cell-based
T2 construct: expressed in transfected cells; host or cells: CHO cells
Procedure, shortened: as §1

[3] = CHO cells stably expressing GPR6, cAMP assay (Example 24)
[4] = CHO cells stably expressing GPR3, cAMP assay (Example 24)
[5] = CHO cells stably expressing GPR6, cAMP assay
[6] = CHO cells stably expressing GPR3, cAMP assay
[7] = procedure as described in Example 24

T1 sequence (P46095 whole entry): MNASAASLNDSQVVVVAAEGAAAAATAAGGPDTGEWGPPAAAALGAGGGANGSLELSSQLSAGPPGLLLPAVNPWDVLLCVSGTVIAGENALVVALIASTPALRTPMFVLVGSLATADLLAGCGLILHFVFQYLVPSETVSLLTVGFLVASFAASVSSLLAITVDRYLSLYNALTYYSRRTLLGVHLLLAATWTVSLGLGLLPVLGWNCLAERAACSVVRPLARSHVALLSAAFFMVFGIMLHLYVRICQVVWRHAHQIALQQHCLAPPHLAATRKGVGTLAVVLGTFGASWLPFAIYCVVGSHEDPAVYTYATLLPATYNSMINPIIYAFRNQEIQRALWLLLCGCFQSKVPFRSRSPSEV
T2 sequence (P46089 whole entry, species assumed): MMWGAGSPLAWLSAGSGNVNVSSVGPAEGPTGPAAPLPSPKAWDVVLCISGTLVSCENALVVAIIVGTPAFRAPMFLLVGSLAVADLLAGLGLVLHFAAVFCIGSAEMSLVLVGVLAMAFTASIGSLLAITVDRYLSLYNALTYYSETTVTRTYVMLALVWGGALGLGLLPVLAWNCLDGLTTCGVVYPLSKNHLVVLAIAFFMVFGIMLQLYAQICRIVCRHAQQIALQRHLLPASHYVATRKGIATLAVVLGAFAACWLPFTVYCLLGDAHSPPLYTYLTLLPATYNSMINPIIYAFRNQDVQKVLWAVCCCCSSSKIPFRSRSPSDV

Row | IC50 [1, 3] | IC50 [2, 4] | IC50 [1, 5] | IC50 [2, 6] | Compound | further results
1 | 1000 to 30000 nM | 1000 to 30000 nM | – | – | CC(=O)N1CCc2nc(N3CCC(Oc4ccc(F)cc4F)CC3)c(-c3cnn4c3CN(C(C)=O)CC4)nc2C1 [Compound 107, 1-(3-{6-acetyl-2-[4-(2,4-difluorophenoxy)piperidin-1-yl]-5H,6H,7H,8H-pyrido[3,4-b]pyrazin-3-yl}-4H,5H,6H,7H-pyrazolo[1,5-a]pyrazin-5-yl)ethan-1-one] | –
2 | ≥ 30000 nM | 1000 to 30000 nM | – | – | CC(=O)N1CCc2nc(N3CC=CCC3)c(-c3cnn(C)c3)nc2C1 [Compound 422, 1-[3-(1-methyl-1H-pyrazol-4-yl)-2-(1,2,3,6-tetrahydropyridin-1-yl)-5H,6H,7H,8H-pyrido[3,4-b]pyrazin-6-yl]ethan-1-one] | –
3 | 1000 to 30000 nM | 1000 to 30000 nM | – | – | CC(=O)N1CCc2nc(N3CCC(Oc4ccc(F)cc4F)CC3)c(-c3cnn(C4CNC4)c3)nc2C1 [Compound 134, 1-{3-[1-(azetidin-3-yl)-1H-pyrazol-4-yl]-2-[4-(2,4-difluorophenoxy)piperidin-1-yl]-5H,6H,7H,8H-pyrido[3,4-b]pyrazin-6-yl}ethan-1-one] | –
4 | – | – | – | – | COc1ccc(CN2CCN(c3nc4c(nc3-c3cnn(C)c3)CN(C(C)=O)CC4)CC2)cc1 [Compound 317, 1-(2-{4-[(4-methoxyphenyl)methyl]piperazin-1-yl}-3-(1-methyl-1H-pyrazol-4-yl)-5H,6H,7H,8H-pyrido[3,4-b]pyrazin-6-yl)ethan-1-one] | IC50 ([1]; procedure of Example 24): 1000 to 30000 nM; IC50 ([2]; procedure of Example 24): 1000 to 30000 nM
5 | – | – | 1000 to 30000 nM | 1000 to 30000 nM | COc1cc(F)c(OC2CCN(c3nc4c(nc3-c3cnn(C)c3)CN(C(C)=O)CC4)CC2)cc1Cl [Compound 503, 1-{2-[4-(5-chloro-2-fluoro-4-methoxyphenoxy)-1-piperidyl]-3-(1-methyl-4-pyrazolyl)-5,6,7,8-tetrahydro-1,4,6-triaza-6-naphthyl}-1-ethanone] | –
6 | – | – | 100 to 1000 nM | 1000 to 30000 nM | CC(C)(O)[C@H](O)c1cc2nc(N3CCN(Cc4ccc(F)cc4F)CC3)c(-c3cnn(CF)c3)nc2cn1 (single isomer, unassigned) [Compound 598] | –
7 | – | – | – | – | CC(C)(O)C(O)c1cc2nc(-c3cnn(CF)c3)c(N3CCC(=Cc4ccc(F)cc4F)CC3)nc2cn1 (single isomer, unassigned) [Compound 777] | IC50 ([1]; procedure of Example 24): 100 to 1000 nM; IC50 ([2]; procedure of Example 24): 100 to 1000 nM
8 | – | – | 100 to 1000 nM | 1000 to 30000 nM | CC(C)(O)[C@@H](O)c1cc2nc(N3CCC(Oc4ccc(F)cc4F)CC3)c(-c3cnn(C4CC4)c3)nc2cn1 (single isomer, unassigned) [Compound 573] | –
9 | 100 to 1000 nM | 1000 to 30000 nM | – | – | Cc1cc2nc(N3CCC(Oc4ccc(F)cc4F)CC3)c(-c3cnn(C)c3)nc2cn1 [Compound 228, 4-(2,4-difluorophenoxy)-1-[7-methyl-3-(1-methyl-1H-pyrazol-4-yl)pyrido[3,4-b]pyrazin-2-yl]piperidine] | –
10 | – | – | < 100 nM | 100 to 1000 nM | Cn1cc(-c2nc3cc(C(O)C(C)(C)O)ncc3nc2N2CCC(Oc3ccc(F)cc3F)CC2)cn1 (single isomer, unassigned) [Compound 561] | –
11 | 1000 to 30000 nM | 1000 to 30000 nM | – | – | CC(=O)N1CCc2nc(N3CCC(Oc4ccc(F)cc4F)CC3)c(-c3cn[nH]c3C3CC3)nc2C1 [Compound 62, 1-[3-(5-cyclopropyl-1H-pyrazol-4-yl)-2-[4-(2,4-difluorophenoxy)piperidin-1-yl]-5H,6H,7H,8H-pyrido[3,4-b]pyrazin-6-yl]ethan-1-one] | –
12 | < 100 nM | 1000 to 30000 nM | – | – | [2H]C([2H])([2H])C([2H])([2H])n1cc(-c2nc3c(nc2N2CCC(Oc4ccc(F)cc4F)CC2)CCN(C(C)=O)C3)cn1 [Compound 406, 1-{2-[4-(2,4-difluorophenoxy)piperidin-1-yl]-3-{1-[(1,1,2,2,2-2H5)ethyl]-1H-pyrazol-4-yl}-5H,6H,7H,8H-pyrido[3,4-b]pyrazin-6-yl}ethan-1-one] | –
13 | 1000 to 30000 nM | 1000 to 30000 nM | – | – | CC(=O)N1CCc2nc(N3CCC(Oc4ccc(F)cc4F)CC3)c(-c3cccc(OC4CCOC4)n3)nc2C1 (stereo not drawn) [Compound 61, 1-{2-[4-(2,4-difluorophenoxy)piperidin-1-yl]-3-[6-(oxolan-3-yloxy)pyridin-2-yl]-5H,6H,7H,8H-pyrido[3,4-b]pyrazin-6-yl}ethan-1-one] | –
14 | 1000 to 30000 nM | 1000 to 30000 nM | – | – | CC(=O)N1CCc2nc(N3CCN(Cc4ccc(C(F)(F)F)cc4)CC3)c(-c3cnn(C)c3)nc2C1 [Compound 384, 1-[3-(1-methyl-1H-pyrazol-4-yl)-2-(4-{[4-(trifluoromethyl)phenyl]methyl}piperazin-1-yl)-5H,6H,7H,8H-pyrido[3,4-b]pyrazin-6-yl]ethan-1-one] | –
15 | – | – | 100 to 1000 nM | 1000 to 30000 nM | CC(=O)N1CCc2nc(N3CCN(C(=O)c4ccc(Cl)cc4)CC3)c(-c3cnn(C)c3)nc2C1 [Compound 538, 1-{2-[4-(p-chlorobenzoyl)-1-piperazinyl]-3-(1-methyl-4-pyrazolyl)-5,6,7,8-tetrahydro-1,4,6-triaza-6-naphthyl}-1-ethanone] | –
16 | – | – | – | – | CCn1cc(-c2nc3c(nc2N2CCC(Oc4ccc(F)cc4F)CC2)CCN(C(=O)OC)C3)cn1 [Compound 273, methyl 2-[4-(2,4-difluorophenoxy)piperidin-1-yl]-3-(1-ethyl-1H-pyrazol-4-yl)-5H,6H,7H,8H-pyrido[3,4-b]pyrazine-6-carboxylate] | IC50 ([1]; procedure of Example 24): < 100 nM; IC50 ([2]; procedure of Example 24): 1000 to 30000 nM
17 | – | – | – | – | COCn1cc(-c2nc3c(nc2N2CCC(Oc4ccc(F)cc4F)CC2)CCN(C(C)=O)C3)cn1 [Compound 14, 1-{2-[4-(2,4-difluorophenoxy)piperidin-1-yl]-3-[1-(methoxymethyl)-1H-pyrazol-4-yl]-5H,6H,7H,8H-pyrido[3,4-b]pyrazin-6-yl}ethan-1-one] | IC50 [1, 7]: 100 to 1000 nM; IC50 [2, 7]: 1000 to 30000 nM
18 | 100 to 1000 nM | 1000 to 30000 nM | – | – | CC(=O)N1CCc2nc(N3CCC(Oc4cc(Cl)ccc4F)CC3)c(-c3cnn(C)c3)nc2C1 [Compound 457, 1-{2-[4-(5-chloro-2-fluorophenoxy)piperidin-1-yl]-3-(1-methyl-1H-pyrazol-4-yl)-5H,6H,7H,8H-pyrido[3,4-b]pyrazin-6-yl}ethan-1-one] | –
19 | – | – | < 100 nM | 1000 to 30000 nM | CC(C)(O)C(O)c1cc2nc(-c3cnn(C4CC4)c3)c(N3CCC(Oc4ccc(F)cc4F)CC3)nc2cn1 (single isomer, unassigned) [Compound 591] | –
20 | – | – | – | – | Cn1cc(-c2nc3cc([C@](C)(O)CO)ncc3nc2N2CCC(Oc3ccc(F)cc3F)CC2)cn1 (single isomer, unassigned) [Compound 691] | IC50 ([1]; procedure of Example 24): 100 to 1000 nM; IC50 ([2]; procedure of Example 24): 1000 to 30000 nM
21 | – | – | 100 to 1000 nM | 1000 to 30000 nM | CC(C)(O)C(=O)c1cc2nc(N3CCN(Cc4ccc(F)cc4F)CC3)c(-c3cnn(CF)c3)nc2cn1 [Compound 568, 1-(2-{4-[(2,4-difluorophenyl)methyl]-1-piperazinyl}-3-[1-(fluoromethyl)-4-pyrazolyl]-1,4,6-triaza-7-naphthyl)-2-hydroxy-2-methyl-1-propanone] | –
22 | – | – | – | – | Clc1ccc(Cl)c(CN2CCN(c3nc4ccncc4nc3-c3ncc[nH]3)CC2)c1 [Compound 5, 1-[(2,5-dichlorophenyl)methyl]-4-[3-(1H-imidazol-2-yl)pyrido[3,4-b]pyrazin-2-yl]piperazine] | IC50 [1, 7]: 100 to 1000 nM; IC50 [2, 7]: 1000 to 30000 nM
23 | – | – | 1000 to 30000 nM | 1000 to 30000 nM | COc1ccc(OC2CCN(c3nc4c(nc3-c3cnn(C)c3)CN(C(C)=O)CC4)CC2)cn1 [Compound 498, 1-{2-[4-(6-methoxy-3-pyridyloxy)-1-piperidyl]-3-(1-methyl-4-pyrazolyl)-5,6,7,8-tetrahydro-1,4,6-triaza-6-naphthyl}-1-ethanone] | –
24 | – | – | – | – | CC(C)(O)[C@@H](O)c1cc2nc(N3CCN(Cc4cc(F)ccc4F)CC3)c(-c3cnn(CF)c3)nc2cn1 (single isomer, unassigned) [Compound 725] | IC50 ([1]; procedure of Example 24): 100 to 1000 nM; IC50 ([2]; procedure of Example 24): ≥ 30000 nM
25 | – | – | – | – | CC(C)(O)[C@](C)(O)c1cc2nc(N3CCN(Cc4ccccc4F)CC3)c(-c3cnn(C(F)F)c3)nc2cn1 (single isomer, unassigned) [Compound 669] | IC50 ([1]; procedure of Example 24): 100 to 1000 nM; IC50 ([2]; procedure of Example 24): 1000 to 30000 nM
26 | 100 to 1000 nM | 1000 to 30000 nM | – | – | CCn1cc(-c2nc3c(nc2N2CCC(Oc4cc(Cl)ccc4Cl)CC2)CCN(C(=O)CO)C3)cn1 [Compound 403, 1-{2-[4-(2,5-dichlorophenoxy)piperidin-1-yl]-3-(1-ethyl-1H-pyrazol-4-yl)-5H,6H,7H,8H-pyrido[3,4-b]pyrazin-6-yl}-2-hydroxyethan-1-one] | –
27 | – | – | – | – | CC(C)(O)[C@@](C)(O)c1cc2nc(N3CCC(Oc4ccc(F)cc4F)CC3)c(-c3cnn(C(F)F)c3)nc2cn1 (single isomer, unassigned) [Compound 656] | IC50 ([1]; procedure of Example 24): 100 to 1000 nM; IC50 ([2]; procedure of Example 24): 1000 to 30000 nM
28 | 1000 to 30000 nM | 1000 to 30000 nM | – | – | COc1ccc(OC2CCN(c3nc4c(nc3-c3cnn(C)c3)CN(C(C)=O)CC4)CC2)cc1 [Compound 425, 1-{2-[4-(4-methoxyphenoxy)piperidin-1-yl]-3-(1-methyl-1H-pyrazol-4-yl)-5H,6H,7H,8H-pyrido[3,4-b]pyrazin-6-yl}ethan-1-one] | –
29 | < 100 nM | 1000 to 30000 nM | – | – | C=CC(=O)N1CCc2nc(N3CCC(Oc4ccc(F)cc4F)CC3)c(-c3cn[nH]c3)nc2C1 [Compound 203, 1-{2-[4-(2,4-difluorophenoxy)piperidin-1-yl]-3-(1H-pyrazol-4-yl)-5H,6H,7H,8H-pyrido[3,4-b]pyrazin-6-yl}prop-2-en-1-one] | –
30 | – | – | 100 to 1000 nM | ≥ 30000 nM | CC(=O)N1CCc2nc(N3CCN(C(CO)(CO)c4cc(F)ccc4F)CC3)c(-c3cnn(C)c3)nc2C1 [Compound 551, 1-(2-{4-[1-(2,5-difluorophenyl)-2-hydroxy-1-(hydroxymethyl)ethyl]-1-piperazinyl}-3-(1-methyl-4-pyrazolyl)-5,6,7,8-tetrahydro-1,4,6-triaza-6-naphthyl)-1-ethanone] | –
